# Data taken from paper PMC6915728 (Nature Communications, 2019).
# Like-named read-outs stand apart in the source and are kept apart here.
# Legend:
# [1] = test system: E. coli BW25113 overexpression strains (ASKA plasmids); experiment: Minimum inhibitory concentration (MIC), serial broth dilution, single-gene overexpression strains vs empty-vector control; format: cell-based, Escherichia coli; settings: for Relative MIC: broth dilution, MS medium, 100 µM IPTG, 30 °C, 20-24 h, OD600, 3 replicates
# Summary of the method: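 E. coli overexpression strains grown in MS medium with chloramphenicol, induced with 100 µM IPTG for 1 h at 30 °C, then about half-million cells inoculated into 12-step AMP dilutions (typically 1.2-fold steps). OD600 read after 20–24 h at 30 °C with shaking; triplicate strains compared with empty-vector control.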
# [2] = test system: AMP-evolved E. coli lines; settings: ref Spohn et al 2019, cited from earlier work
# Text: Supplement 41467_2019_13618_MOESM13_ESM.xlsx, sheet "Figure 6 and S15" | column: A comprehensive dataset of antimicrobial susceptibility of AMP-adapted lines to antimicrobial peptides (AMPs).
# [3] = test system: bacterial species in which the gene showed activity; settings: cited from earlier work
sequence,measurement,setting,value
"LLGDFFRKSKEKIGKEFKRIVQRIKDFLRNLVPRTES [LL37, LL-37 human cathelicidin, human host-defense peptide; disrupts cell membrane; cluster C2]",Average relative change in MIC,"[1]; mlaD overexpression strain relative to control (wild-type+empty vector), 3 replicates each, from optical density values of serial dilution plates, AMP in µg ml-1",2.42
same,Relative MIC,"[1]; overexpression strain gadW, MIC of overexpression strain / MIC of empty-plasmid control",0.79
same,Relative MIC,"[1]; overexpression strain hyfA, MIC of overexpression strain / MIC of empty-plasmid control",0.74
same,Relative MIC,"[1]; overexpression strain lptB, MIC of overexpression strain / MIC of empty-plasmid control",1.2
same,Relative MIC,"[1]; overexpression strain mlaC, MIC of overexpression strain / MIC of empty-plasmid control",1.43
same,Relative MIC,"[1]; overexpression strain mlaD, MIC of the overexpression strain / MIC of the control strain (wild-type carrying the empty plasmid)",2.5
same,Relative MIC,"[1]; overexpression strain yijE, MIC of overexpression strain / MIC of empty-plasmid control",1.2
same,Relative MIC,"[1]; overexpression strain ytjB, MIC of overexpression strain / MIC of empty-plasmid control",1.2
same,Relative change in MIC (MIC of the AMP-adpated line / MIC of the ancestral strain),[2]; AMP-adapted line BAC5_3,1
same,Relative change in MIC (MIC of the AMP-adpated line / MIC of the ancestral strain),[2]; AMP-adapted line BAC5_5,1.2
same,Relative change in MIC (MIC of the AMP-adpated line / MIC of the ancestral strain),[2]; AMP-adapted line BAC5_7,1.1
same,Relative change in MIC (MIC of the AMP-adpated line / MIC of the ancestral strain),[2]; AMP-adapted line BAC5_10,1.1
same,Relative change in MIC (MIC of the AMP-adpated line / MIC of the ancestral strain),[2]; AMP-adapted line CAP18_2,6.3
same,Relative change in MIC (MIC of the AMP-adpated line / MIC of the ancestral strain),[2]; AMP-adapted line CAP18_5,3.7
same,Relative change in MIC (MIC of the AMP-adpated line / MIC of the ancestral strain),[2]; AMP-adapted line CAP18_6,1.2
same,Relative change in MIC (MIC of the AMP-adpated line / MIC of the ancestral strain),[2]; AMP-adapted line CAP18_8,6.3
same,Relative change in MIC (MIC of the AMP-adpated line / MIC of the ancestral strain),[2]; AMP-adapted line CAP18_10,8.2
same,Relative change in MIC (MIC of the AMP-adpated line / MIC of the ancestral strain),[2]; AMP-adapted line HBD3_3,1.7
same,Relative change in MIC (MIC of the AMP-adpated line / MIC of the ancestral strain),[2]; AMP-adapted line HBD3_6,1.2
same,Relative change in MIC (MIC of the AMP-adpated line / MIC of the ancestral strain),[2]; AMP-adapted line HBD3_8,1.7
same,Relative change in MIC (MIC of the AMP-adpated line / MIC of the ancestral strain),[2]; AMP-adapted line HBD3_10,1.7
same,Relative change in MIC (MIC of the AMP-adpated line / MIC of the ancestral strain),[2]; AMP-adapted line PEX_1,1.1
same,Relative change in MIC (MIC of the AMP-adpated line / MIC of the ancestral strain),[2]; AMP-adapted line PEX_4,16
same,Relative change in MIC (MIC of the AMP-adpated line / MIC of the ancestral strain),[2]; AMP-adapted line PEX_5,0.9
same,Relative change in MIC (MIC of the AMP-adpated line / MIC of the ancestral strain),[2]; AMP-adapted line PEX_6,1
same,Relative change in MIC (MIC of the AMP-adpated line / MIC of the ancestral strain),[2]; AMP-adapted line PEX_7,1
same,Relative change in MIC (MIC of the AMP-adpated line / MIC of the ancestral strain),[2]; AMP-adapted line PR39_1,1.2
same,Relative change in MIC (MIC of the AMP-adpated line / MIC of the ancestral strain),[2]; AMP-adapted line PR39_2,1.2
same,Relative change in MIC (MIC of the AMP-adpated line / MIC of the ancestral strain),[2]; AMP-adapted line PR39_5,0.9
same,Relative change in MIC (MIC of the AMP-adpated line / MIC of the ancestral strain),[2]; AMP-adapted line PR39_7,1
same,Relative change in MIC (MIC of the AMP-adpated line / MIC of the ancestral strain),[2]; AMP-adapted line PR39_10,0.8
same,Relative change in MIC (MIC of the AMP-adpated line / MIC of the ancestral strain),[2]; AMP-adapted line PROA_2,1
same,Relative change in MIC (MIC of the AMP-adpated line / MIC of the ancestral strain),[2]; AMP-adapted line PROA_3,0.8
same,Relative change in MIC (MIC of the AMP-adpated line / MIC of the ancestral strain),[2]; AMP-adapted line PROA_7,0.9
same,Relative change in MIC (MIC of the AMP-adpated line / MIC of the ancestral strain),[2]; AMP-adapted line PROA_8,1
same,Relative change in MIC (MIC of the AMP-adpated line / MIC of the ancestral strain),[2]; AMP-adapted line PROA_9,0.9
same,Relative change in MIC (MIC of the AMP-adpated line / MIC of the ancestral strain),[2]; AMP-adapted line PXB_2,1
same,Relative change in MIC (MIC of the AMP-adpated line / MIC of the ancestral strain),[2]; AMP-adapted line PXB_5,0.9
same,Relative change in MIC (MIC of the AMP-adpated line / MIC of the ancestral strain),[2]; AMP-adapted line PXB_6,1
same,Relative change in MIC (MIC of the AMP-adpated line / MIC of the ancestral strain),[2]; AMP-adapted line PXB_8,1
same,Relative change in MIC (MIC of the AMP-adpated line / MIC of the ancestral strain),[2]; AMP-adapted line PXB_10,1
same,Gene that modulates bacterial susceptibility to the AMP,"[3]; Bordetella pertussis, ref http://www.ncbi.nlm.nih.gov/pmc/articles/PMC4136009/","lgmA, IgmB, IgmC"
same,Gene that modulates bacterial susceptibility to the AMP,"[3]; Enterobacteriaceae, ref https://www.ncbi.nlm.nih.gov/pmc/articles/PMC3264287/, https://onlinelibrary.wiley.com/doi/full/10.1111/j.1348-0421.2010.00238.x, https://jb.asm.org/content/180/15/4002.full",ompT
same,Gene that modulates bacterial susceptibility to the AMP,"[3]; Enterococcus faecalis, ref http://www.jbc.org/content/279/51/52820.full.pdf",sprE
same,Gene that modulates bacterial susceptibility to the AMP,"[3]; Enterococcus faecalis, ref https://www.ncbi.nlm.nih.gov/pmc/articles/PMC2976315/",gelE
same,Gene that modulates bacterial susceptibility to the AMP,"[3]; Group A Streptococcus pyogenes, ref http://www.ncbi.nlm.nih.gov/pmc/articles/PMC3241932/pdf/nihms218493.pdf",emm1
same,Gene that modulates bacterial susceptibility to the AMP,"[3]; Neisseria meningitidis, gene siaC, ref http://jb.asm.org/content/191/12/3861.full.pdf+html",siaC
same,Gene that modulates bacterial susceptibility to the AMP,"[3]; Neisseria meningitidis, gene siaD, ref http://jb.asm.org/content/191/12/3861.full.pdf+html",siaD
same,Gene that modulates bacterial susceptibility to the AMP,"[3]; Proteus mirabilis, ref http://www.ncbi.nlm.nih.gov/pmc/articles/PMC517467/pdf/0713-04.pdf",zapA
same,Gene that modulates bacterial susceptibility to the AMP,"[3]; Pseudomonas aeruginosa, ref http://portal.research.lu.se/portal/files/2657079/623699.pdf","lasA, IsaB"
same,Gene that modulates bacterial susceptibility to the AMP,"[3]; Salmonella typhimurium, Escherichia coli, ref https://www.ncbi.nlm.nih.gov/pmc/articles/PMC3037666/, https://www.ncbi.nlm.nih.gov/pmc/articles/PMC4808223/","amiA, amiC"
same,Gene that modulates bacterial susceptibility to the AMP,"[3]; Salmonella typhimurium, ref http://www.sciencedirect.com/science/article/pii/S1368764616300024",waaY
same,Gene that modulates bacterial susceptibility to the AMP,"[3]; Staphylococcus aureus, ref http://aac.asm.org/content/48/12/4673.full.pdf+html",aur (aureolysin)
same,Gene that modulates bacterial susceptibility to the AMP,"[3]; Staphylococcus aureus, ref http://onlinelibrary.wiley.com/doi/10.1111/j.1365-2958.2007.05986.x/epdf",apsS
same,Gene that modulates bacterial susceptibility to the AMP,"[3]; Streptococcus pyogenes, ref http://www.jbc.org/content/279/51/52820.full.pdf",speB
same,Gene that modulates bacterial susceptibility to the AMP,[3],pgtE and pla
